Patent US6727268B2, “2-thioxothiazole derivative, method for preparing the same, and pharmaceutical composition containing the same” (CJ Corp., priority 2002, dated 2004)

Columns and labels:
COX-1 = target: T1, COX-1 (Homo sapiens, UniProt P23219); assay: Assay for the COX-1 inhibitory activity using U-937 (PGE2 inhibition); type: cell-based; details: 1 μM test compound; U-937 human lymphoma cells; arachidonic acid substrate; PGE2 vs DMSO control; read-out: Cyclooxygenase (COX) Inhibition (%) COX-1 (1 μM)
T1 construct: host or cells: U-937 human lymphoma cells
T1 sequence (P23219 24-599): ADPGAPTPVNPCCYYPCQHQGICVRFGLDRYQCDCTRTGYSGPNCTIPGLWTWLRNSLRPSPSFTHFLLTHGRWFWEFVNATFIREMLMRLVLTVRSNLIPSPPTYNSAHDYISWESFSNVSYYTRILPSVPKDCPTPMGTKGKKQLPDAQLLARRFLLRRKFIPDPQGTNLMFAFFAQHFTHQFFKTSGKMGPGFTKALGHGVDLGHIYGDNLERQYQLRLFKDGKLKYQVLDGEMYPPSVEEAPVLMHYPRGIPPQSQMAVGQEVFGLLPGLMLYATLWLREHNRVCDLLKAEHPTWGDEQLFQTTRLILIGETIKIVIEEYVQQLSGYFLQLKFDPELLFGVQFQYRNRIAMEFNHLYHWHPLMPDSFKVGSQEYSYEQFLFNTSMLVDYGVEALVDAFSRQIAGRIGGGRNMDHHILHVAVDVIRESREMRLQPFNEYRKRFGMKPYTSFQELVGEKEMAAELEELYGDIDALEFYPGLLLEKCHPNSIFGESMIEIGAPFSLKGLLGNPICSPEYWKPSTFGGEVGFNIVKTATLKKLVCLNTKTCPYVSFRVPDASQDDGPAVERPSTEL
Method: The collected cells were diluted with HBSS (×1, Hank's balanced salt solution) to a concentration of 1×10^6 cells/ml. 1 ml of the dilute cell solution was placed into each well of 12-well plates. 5 μl of 1 μM solution of a test compound in DMSO and 5 μl of DMSO as a control were added to the wells. The wells were incubated in CO2 incubator at 37° C. for 15 minutes. Separately, 10 mM stock solution of arachidonic acid in ethanol was diluted ten times in ethanol to prepare 1 mM solution of arachidonic acid. Arachidonic acid acts as a substrate. 10 μl of the 1 mM solution of arachidonic acid was added to each well and incubated at CO2 incubator at 37° C. for 30 minutes. The cell solution of each well was placed in a centrifuge test tube and centrifuged at 10,000 rpm at 4° C. for 5 minutes. The concentration of PGE2 in the collected cells and the supernatant was quantified by means of a monoclonal kit (Cayman Chemicals). The percentages of PGE2 inhibition in a group of the test compound-treated cells in relation to a group of the DMSO-treated cells were calculated. Based on the calculated values, the COX-1 inhibitory activities were evaluated.
(§1) The percentages of the COX inhibition were calculated according to the following equation: [formula]

COX-2 = target: T2, COX-2 (Mus musculus, UniProt Q05769); assay: Assay for the COX-2 inhibitory activity using RAW 264.7 cell line (PGE2, EIA); type: cell-based; details: RAW264.7, 10 nM test compound, RAW 264.7 cells, aspirin pre-treated, interferon + LPS 18 hours, read-out: Cyclooxygenase (COX) Inhibition (%) COX-2 (10 nM)
T2 construct: host or cells: RAW 264.7 cells, pre-treated with aspirin and induced with interferon and LPS
T2 sequence (Q05769 18-604): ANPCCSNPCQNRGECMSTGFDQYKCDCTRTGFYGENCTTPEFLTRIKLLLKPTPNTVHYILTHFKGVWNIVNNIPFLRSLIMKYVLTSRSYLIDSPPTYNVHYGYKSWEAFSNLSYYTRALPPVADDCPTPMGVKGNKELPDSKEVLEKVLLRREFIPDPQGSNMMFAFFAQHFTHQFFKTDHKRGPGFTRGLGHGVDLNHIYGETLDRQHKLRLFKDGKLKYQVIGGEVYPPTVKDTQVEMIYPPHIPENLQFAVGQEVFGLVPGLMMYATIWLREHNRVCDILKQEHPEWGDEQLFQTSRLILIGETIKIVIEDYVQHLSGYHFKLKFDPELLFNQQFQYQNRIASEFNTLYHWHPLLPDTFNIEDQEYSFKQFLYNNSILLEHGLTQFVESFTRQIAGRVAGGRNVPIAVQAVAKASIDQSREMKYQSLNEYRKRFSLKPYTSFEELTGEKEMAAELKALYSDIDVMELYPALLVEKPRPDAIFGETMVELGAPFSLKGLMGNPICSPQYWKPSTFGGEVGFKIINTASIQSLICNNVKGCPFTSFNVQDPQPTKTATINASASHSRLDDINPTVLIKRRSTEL
Method: Each well was treated with 250 μM of aspirin and incubated at 37° C. for 2 hours. After the culture media were replaced with new culture media, the new culture media were treated with a test compound (10 nM) and incubated for 30 minutes. Then, each well was treated with interferon ? (100 units/ml) and lipopolysaccharide (LPS, 100 ng/ml) and incubated for 18 hours. The culture media were transferred to other test tubes. The concentration of PGE2 was quantified by means of the EIA kit (Cayman Chemicals).
as §1

inhibition at 1 µM (COX-1) | inhibition at 0.01 µM (COX-2) | melting point | SMILES
28.5% | 60.9% | 235 °C | NS(=O)(=O)c1ccc(-n2c(-c3ccccc3)csc2=S)cc1 [Example 1, 4-(4-phenyl-2-thioxothiazole-3-yl)benzenesulfonamide]
35.2% | 66.5% | 262 °C | Cc1sc(=S)n(-c2ccc(S(N)(=O)=O)cc2)c1-c1ccccc1 [Example 2, 4-(5-methyl-4-phenyl-2-thioxothiazole-3-yl)benzenesulfonamide]
30.7% | 65.8% | 288 °C | CS(=O)(=O)c1ccc(-c2csc(=S)n2-c2ccc(S(N)(=O)=O)cc2)cc1 [Example 3, 4-[4-(4-methanesulfonylphenyl)-2-thioxothiazole-3-yl]benzenesulfo namide]
31.1% | 72.7% | 271 °C | NS(=O)(=O)c1ccc(-n2c(-c3ccc(F)cc3)csc2=S)cc1 [Example 4, 4-[4-(4-fluorophenyl)-2-thioxothiazole-3-yl]benzenesulfonamide]
15.8% | 75% | 284 °C | NS(=O)(=O)c1ccc(-n2c(-c3cccc([N+](=O)[O-])c3)csc2=S)cc1 [Example 5, 4-[4-(3-nitrophenyl)-2-thioxothiazole-3-yl]benzenesulfonamide]
38.5% | 73.5% | 242 °C | NS(=O)(=O)c1ccc(-n2c(-c3ccc(Cl)cc3)csc2=S)cc1 [Example 6, 4-[4-(4-chlorophenyl)-2-thioxothiazole-3-yl]benzenesulfonamide]

SMILES | inhibition at 1 µM (COX-1) | inhibition at 0.01 µM (COX-2) | melting point
Cc1onc(-c2ccccc2)c1-c1ccc(S(N)(=O)=O)cc1 [Reference (Valdecoxib), Valdecoxib, reference compound] | 29.5% |  | 
